The NIST ThermoML archive (doi:10.1021/je700261b)
± gives the expanded uncertainty stated by the source.

Experiment: xn = mol fraction of the nth substance listed
Conditions: Liquid

CCCCO [butan-1-ol] + O=C=O
Conditions | mass density [kg/m3]
362.67 K, 7985 kPa, x2 = 0.0251 | 762.59 ± 0.54
362.67 K, 9006 kPa, x2 = 0.0251 | 763.64 ± 0.55
362.67 K, 10031 kPa, x2 = 0.0251 | 764.7 ± 0.56
362.67 K, 11027 kPa, x2 = 0.0251 | 765.69 ± 0.58
362.67 K, 12000 kPa, x2 = 0.0251 | 766.65 ± 0.59
362.67 K, 13054 kPa, x2 = 0.0251 | 767.68 ± 0.6
362.67 K, 14008 kPa, x2 = 0.0251 | 768.61 ± 0.61
362.67 K, 14993 kPa, x2 = 0.0251 | 769.57 ± 0.62
362.67 K, 16000 kPa, x2 = 0.0251 | 770.52 ± 0.63
362.67 K, 17046 kPa, x2 = 0.0251 | 771.48 ± 0.64
362.67 K, 17989 kPa, x2 = 0.0251 | 772.34 ± 0.65
362.67 K, 19009 kPa, x2 = 0.0251 | 773.27 ± 0.66
362.67 K, 20045 kPa, x2 = 0.0251 | 774.19 ± 0.67
362.67 K, 21017 kPa, x2 = 0.0251 | 775.08 ± 0.69
362.67 K, 22075 kPa, x2 = 0.0251 | 775.99 ± 0.7
362.67 K, 23006 kPa, x2 = 0.0251 | 776.82 ± 0.71
362.67 K, 24007 kPa, x2 = 0.0251 | 777.69 ± 0.72
362.67 K, 25062 kPa, x2 = 0.0251 | 778.61 ± 0.73
362.69 K, 2045 kPa, x2 = 0.0857 | 757.33 ± 0.49
362.69 K, 3006 kPa, x2 = 0.0857 | 758.53 ± 0.49
362.69 K, 3982 kPa, x2 = 0.0857 | 759.72 ± 0.5
362.69 K, 5010 kPa, x2 = 0.0857 | 760.91 ± 0.51
362.69 K, 5976 kPa, x2 = 0.0857 | 762.09 ± 0.52
362.69 K, 6994 kPa, x2 = 0.0857 | 763.25 ± 0.53
362.69 K, 7999 kPa, x2 = 0.0857 | 764.42 ± 0.54
362.69 K, 8998 kPa, x2 = 0.0857 | 765.51 ± 0.55
362.69 K, 10048 kPa, x2 = 0.0857 | 766.67 ± 0.56
362.69 K, 11028 kPa, x2 = 0.0857 | 767.74 ± 0.57
362.69 K, 11999 kPa, x2 = 0.0857 | 768.75 ± 0.58
362.69 K, 12994 kPa, x2 = 0.0857 | 769.85 ± 0.59
362.69 K, 14018 kPa, x2 = 0.0857 | 770.91 ± 0.6
362.69 K, 15014 kPa, x2 = 0.0857 | 771.91 ± 0.62
362.69 K, 15995 kPa, x2 = 0.0857 | 772.93 ± 0.63
362.69 K, 17061 kPa, x2 = 0.0857 | 773.98 ± 0.64
362.69 K, 18008 kPa, x2 = 0.0857 | 774.96 ± 0.65
362.69 K, 19008 kPa, x2 = 0.0857 | 775.88 ± 0.66
362.69 K, 20060 kPa, x2 = 0.0857 | 776.81 ± 0.67
362.69 K, 21044 kPa, x2 = 0.0857 | 777.83 ± 0.68
362.69 K, 22045 kPa, x2 = 0.0857 | 778.82 ± 0.69
362.69 K, 23036 kPa, x2 = 0.0857 | 779.68 ± 0.7
362.69 K, 24037 kPa, x2 = 0.0857 | 780.65 ± 0.71
362.69 K, 25015 kPa, x2 = 0.0857 | 781.57 ± 0.72
362.74 K, 14112 kPa, x2 = 0.4972 | 771.83 ± 0.61
362.74 K, 15096 kPa, x2 = 0.4972 | 773.91 ± 0.62
362.74 K, 15985 kPa, x2 = 0.4972 | 775.76 ± 0.63
362.74 K, 17043 kPa, x2 = 0.4972 | 777.9 ± 0.63
362.74 K, 18079 kPa, x2 = 0.4972 | 779.94 ± 0.64
362.74 K, 19117 kPa, x2 = 0.4972 | 781.94 ± 0.65
362.74 K, 20051 kPa, x2 = 0.4972 | 783.68 ± 0.66
362.74 K, 21025 kPa, x2 = 0.4972 | 785.45 ± 0.67
362.74 K, 22018 kPa, x2 = 0.4972 | 787.27 ± 0.68
362.74 K, 23076 kPa, x2 = 0.4972 | 789.13 ± 0.69
362.74 K, 24063 kPa, x2 = 0.4972 | 790.85 ± 0.69
362.74 K, 25140 kPa, x2 = 0.4972 | 792.64 ± 0.7
362.75 K, 21992 kPa, x2 = 0.8663 | 710.63 ± 1.1
362.75 K, 23010 kPa, x2 = 0.8663 | 720.36 ± 0.88
362.75 K, 24074 kPa, x2 = 0.8663 | 729.68 ± 0.87
362.75 K, 25130 kPa, x2 = 0.8663 | 738.23 ± 0.89
362.76 K, 15085 kPa, x2 = 0.5965 | 765.37 ± 0.63
362.76 K, 16042 kPa, x2 = 0.5965 | 768.34 ± 0.64
362.76 K, 17060 kPa, x2 = 0.5965 | 771.36 ± 0.65
362.76 K, 18019 kPa, x2 = 0.5965 | 774.09 ± 0.65
362.76 K, 19023 kPa, x2 = 0.5965 | 776.91 ± 0.66
362.76 K, 20064 kPa, x2 = 0.5965 | 779.68 ± 0.71
362.76 K, 21026 kPa, x2 = 0.5965 | 782.15 ± 0.69
362.76 K, 22023 kPa, x2 = 0.5965 | 784.67 ± 0.7
362.76 K, 23058 kPa, x2 = 0.5965 | 787.18 ± 0.7
362.76 K, 24078 kPa, x2 = 0.5965 | 789.61 ± 0.71
362.76 K, 25110 kPa, x2 = 0.5965 | 791.98 ± 0.72
362.78 K, 6018 kPa, x2 = 0.1842 | 761.83 ± 0.52
362.78 K, 6995 kPa, x2 = 0.1842 | 763.16 ± 0.53
362.78 K, 8099 kPa, x2 = 0.1842 | 764.64 ± 0.54
362.78 K, 9002 kPa, x2 = 0.1842 | 765.81 ± 0.55
362.78 K, 10022 kPa, x2 = 0.1842 | 767.06 ± 0.56
362.78 K, 10995 kPa, x2 = 0.1842 | 768.34 ± 0.57
362.78 K, 12059 kPa, x2 = 0.1842 | 769.68 ± 0.58
362.78 K, 13056 kPa, x2 = 0.1842 | 770.87 ± 0.59
362.78 K, 14029 kPa, x2 = 0.1842 | 772.05 ± 0.6
362.78 K, 15026 kPa, x2 = 0.1842 | 773.24 ± 0.61
362.78 K, 16010 kPa, x2 = 0.1842 | 774.38 ± 0.62
362.78 K, 17020 kPa, x2 = 0.1842 | 775.53 ± 0.63
362.78 K, 18041 kPa, x2 = 0.1842 | 776.68 ± 0.65
362.78 K, 19031 kPa, x2 = 0.1842 | 777.79 ± 0.66
362.78 K, 20045 kPa, x2 = 0.1842 | 778.9 ± 0.67
